Data published in patent US5045566A, “Novel imidate insecticides” (ICI Americas Inc., priority 1989, dated 1991).

Columns and labels:
Format in all cases: in vivo
[1] = system: Housefly [Musca domestica]; assay: Housefly contact mortality in dishes (HF), 48 hours; conditions: μg of test compound per 25 female flies
Outline: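 LC50, as μg compound per 25 female flies, comes from dosage-mortality curves with doses from 100 μg downward. Residues were made by evaporating acetone plus 0.01% peanut oil in dishes, onto which 1-2-day-old females were caged; deaths were counted after 48 hours.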

[2] = system: Black Bean Aphid [Aphis fabae (Scop.)]; assay: Black bean aphid spray test on nasturtium (BBA), 48 hours; conditions: percent of test compound in sprayed solution
Outline: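 LC50, given as percent test compound in the sprayed liquid, was calculated from dosage-mortality curves using concentrations from 0.05% downward. Sprays in 50:50 acetone-water went to runoff on ~5 cm nasturtiums carrying 25-50 aphids of mixed ages, one day after infestation. Deaths were counted 48 h later under greenhouse conditions.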

[3] = system: Tobacco Budworm [Heliothis virescens (Fabricius)] larvae; assay: Tobacco budworm larvae, contact (TBW-C), 5 days; conditions: percent in solution, second-instar larvae
Outline: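 Cotton cotyledons dipped 2–3 s in compound in 50-50 acetone-water, dried, then infested with 5 second-instar larvae and held 5 days at high humidity. Mortality scored; LC50 from dosage-mortality curves, expressed as percent compound in solution, concentrations from 0.1% downward.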

[4] = system: Tobacco Budworm [Heliothis virescens (Fabricius)] eggs; assay: Tobacco budworm eggs (TBW-E); conditions: percent in solution; 2-day old eggs
Outline: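 LC50 is given as percent compound in the dipping solution, fitted from dosage-mortality curves. Two-day-old eggs on paper towel were dipped in acetone solutions (top concentration 0.1%), kept at 78° F on rearing medium, and scored after control hatch and larval feeding.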

[5] = system: Beet Armyworm (Spodoptera exigua); assay: Beet armyworm leaf dip (BAW), 5 days; conditions: percent in solution; second-instar larvae; five days
Outline: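 Five second-instar larvae per dish fed on dried sugar beet leaves previously dipped 2–3 s in acetone-water (1:1) test solutions up to 0.1%. Kept at high humidity, with deaths counted after five days; LC50 as % in solution via dosage-mortality curves.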

[6] = system: Cabbage Looper [Trichoplusia ni (Hubner)]; assay: Cabbage looper leaf dip (CL), 3-5 days; conditions: percent in solution, second-instar larvae
Outline: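 LC50, as percent test compound in solution, derived from dosage-mortality curves; concentrations started at 0.1% and went lower. Five second-instar larvae per dish fed on acetone-water-dipped, dried squash cotyledons in a humid chamber. Deaths recorded 3-5 days post-infestation.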

[7] = system: Aster Leafhopper [Macrosteles fascifrens (Stal)]; assay: Aster leafhopper on dipped oat seedlings (LH), 48 hours; conditions: percent in solution, adults/nymphs
Outline: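 LC50 values, given as percent of test compound in the dip solution, were derived from dosage-mortality curves over concentrations from 0.05% downward. Mortality was counted 48 hours after ten leafhopper adults/nymphs were enclosed on treated seedlings. The seedlings were oats, about 10 cm tall, briefly dipped in 50-50 acetone-water.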

[8] = system: Maize weevil [Sitophilus zeamais (Motschulsky)]; assay: Maize weevil on dipped corn seeds (MW), 48 hours; conditions: percent in solution, adult weevils
Outline: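 LC50, given as percent of compound in dipping solution, comes from dosage-mortality curves over concentrations descending from 0.01%. Four corn seeds soaked 2-3 s in 50:50 acetone:water solution were dried and held with 10 adult weevils, about 25° C, mortality read after 48 h.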

[9] = system: Rice water weevil [Lissorhoptrus oryzophilus (Kuschel)]; assay: Rice water weevil topical (RWW), 48 hours; conditions: μg of test compound per weevil, female adults
Experimental: The compounds in Tables 1 and 2 above were tested for insecticidal activity using the following testing procedures. LC50 values, based on the results of these tests and calculated according to dosage-mortality curves, are expressed in Table 3.
Rice water weevil [Lissorhoptrus oryzophilus (Kuschel)]:
Test compounds were diluted in acetone. Droplets (1 ul) of test solutions were applied to the ventral abdomens of ten female adult weevils. The treated weevils were placed in containers with wet cotton balls and rice foliage. The containers were covered and kept at a temperature of about 25° C. Mortality was recorded after 48 hours. Test concentrations ranged from […] down to that at which 50% mortality occurred. The LC50 values are expressed below in Table 3 under the heading "RWW" in terms of μg of test compound per weevil.

SMILES | LC50 HF [1] [µg] | LC50 BBA [2] [%] | LC50 TBW C (contact) [3] [%] | LC50 TBW E (eggs) [4] [%] | LC50 BAW [5] [%] | LC50 CL [6] [%] | LC50 LH [7] [%] | LC50 MW [8] [%] | LC50 RWW [9] [µg]
CC(Cl)C(=Nc1ccc(Cl)cc1)OCc1cccc(Oc2ccccc2)c1 (stereo not shown) [Compound 33] | 17 | 0.003 | 0.0025 | > 0.1 | 0.02 | 0.01 | > 0.05 | > 0.01 | 
CC(=Nc1ccccc1)OCc1cccc(Oc2ccccc2)c1 [Compound 42] | 45 | > 0.05 | > 0.1 | > 0.1 | > 0.1 | > 0.1 | > 0.05 | > 0.01 | 
FC(F)(F)c1ccc(N=C(OCc2cccc(Oc3ccccc3)c2)C(Cl)Cl)cc1 [Compound 61] | 29 | 0.001 | 0.03 | 0.03 | 0.002 | 0.001 | > 0.05 | > 0.01 | 
FC(F)(F)Oc1ccc(N=C(OCc2cccc(Oc3ccccc3)c2)C(Cl)Cl)cc1 [Compound 64] | 11 | 0.0006 | 0.1 | 0.03 | 0.0025 | 0.0025 | > 0.05 | > 0.01 | 
CC(C)C(=Nc1cc(F)cc(C(F)(F)F)c1)OCc1cccc(Oc2ccccc2)c1 [Compound 77] | 10 | 0.001 | 0.0004 | 0.03 | 0.004 | 0.0005 | 0.0002 | > 0.01 | 
Fc1ccc(N=C(OCc2cccc(Oc3ccccc3)c2)C2CC2)cc1Cl [Compound 113] | 15 |  |  |  |  | 0.005 |  |  | > 2.5
CC(C)C(=Nc1ccc(C(C)C)cc1)OCc1cccc(Oc2ccccc2)c1 [Compound 144] | 100 | 0.003 | 0.006 | 0.05 | > 0.01 | 0.002 | 0.0006 | > 0.01 | 
CC(C)C(=Nc1ccc2c(c1)OCO2)OCc1cccc(Oc2ccc(F)cc2)c1 [Compound 176] | 1.8 | 0.0006 | 0.002 | 0.05 | 0.0035 | 0.0005 | > 0.05 | 0.009 | 
CC(C)C(=Nc1ccc(F)c(Cl)c1)OCc1cc(Oc2ccc(F)cc2)ccc1F [Compound 230] | 36 | 0.01 |  | 0.1 |  | 0.0004 |  | 0.038 | > 2.5
CC(C)C(=Nc1ccc(F)c(Br)c1)OCc1cccc(Oc2ccccc2)c1 [Compound 254] | 6 | 0.001 |  | 0.026 |  | 0.001 |  |  | > 2.5
CC(C)C(=Nc1ccc(F)c(Cl)c1)OCc1cccc(Oc2ccc(F)cc2)c1F [Compound 262] | 26 | 0.03 |  | > 0.1 |  | 0.0004 |  | 0.005 | > 2.5
CC(C)C(=Nc1cccc(C(F)(F)F)c1)OCc1ccc(F)c(Oc2ccc(F)cc2)c1 [Compound 268] | 4 | > 0.05 | 0.0005 | 0.023 | 0.001 | 0.000025 | 0.0005 | > 0.01 | 
CC(C)C(=Nc1cccc(Cl)c1)OCc1cccc(Oc2ccc(Cl)cc2)c1 [Compound 270] | 12 | > 0.05 | > 0.0015 | > 0.01 | 0.005 | 0.00025 | 0.003 | > 0.01 | 
CC(C)C(=Nc1cccc(I)c1)OCc1ccc(F)c(Oc2ccc(F)cc2)c1 [Compound 279] | 4 | 0.0005 | 0.007 | 0.016 | 0.0025 | 0.00008 | 0.0003 | > 0.01 | 
CC(C)(F)C(=Nc1ccc(F)c(Cl)c1)OCc1ccc(F)c(Oc2ccc(F)cc2)c1 [Compound 310] | 4.5 | 0.0006 |  | 0.015 |  | 0.00006 |  |  | > 2.5
CC(C)C(=Nc1ccc(C(F)(F)F)cc1)OCc1ccc(F)c(Oc2ccc(F)cc2)c1 [Compound 314] | 21 |  |  | 0.012 |  | 0.00005 |  |  | 0.11
CC(C)C(=Nc1ccc(F)c(Cl)c1)OCc1ccc(F)c(Oc2ccc(F)c(F)c2)c1 [Compound 346] | 7.2 | 0.0008 | 0.0002 | > 0.1 | > 0.1 | > 0.1 | 0.05 | > 0.01 | 
CC(C)C(=Nc1ccc(OC(F)(F)F)cc1)OCc1ccc(F)c(Oc2ccc(F)c(F)c2)c1 [Compound 347] | 30 | 0.0002 | 0.0001 | > 0.1 | 0.00075 | 0.000075 | 0.0002 | > 0.01 | 
CC(C)C(=Nc1ccc(F)c(F)c1F)OCc1cccc(Oc2ccc(F)cc2)c1 [Compound 348] | 8 | 0.001 | 0.00075 | > 0.1 | > 0.1 | 0.0002 | 0.05 | > 0.01 | 
CCOc1ccc(N=C(OCc2ccc(F)c(Oc3ccc(Cl)cc3)c2)C(C)C)cc1Cl [Compound 369] | > 100 | 0.0003 |  | > 0.1 |  | 0.0016 |  | > 0.01 | > 2.5
CCOc1ccc(N=C(OCc2ccc(F)c(Oc3ccccc3)c2)C(C)C)cc1Cl [Compound 370] | < 100 | 0.0002 |  | 0.02 |  | 0.00034 |  | > 0.01 | > 2.5
CC(C)C(=Nc1cccc(F)c1)OCc1ccc(F)c(Oc2ccc(Cl)cc2)c1 [Compound 375] | 7.9 | 0.0006 |  | 0.04 |  | > 0.1 |  | > 0.01 | > 2.5
CC(C)C(=Nc1ccc(Cl)c(Cl)c1)OCc1ccc(F)c(Oc2ccccc2)c1 [Compound 376] | 17 | 0.0003 |  | 0.02 |  | 0.00037 |  | 0.0061 | 0.1
CC(C)C(=Nc1ccc(C(F)(F)F)c(Br)c1)OCc1ccc(F)c(Oc2ccc(Cl)cc2)c1 [Compound 377] | < 100 | 0.001 |  | > 0.1 |  | 0.00062 |  | > 0.01 | > 2.5
